These results are taken from patent US6444668B1 (Wyeth, priority 1999, dated 2002).

A word on the melting point: it is the temperature of the solid-liquid transition. Compound `CC1(Cc2ccccc2)OC(=O)Nc2ccc(-c3cccc(Cl)c3)cc21` (stereo not shown) [Example 40, 4-Benzyl-6-(3-chloro-phenyl)-4-methyl-1,4-dihydro-benzo[d][1,3]oxazin-2-one] registered a melting point of 187 to 188 °C. For the compound `CC1(C)OC(=O)Nc2ccc(-c3cc(CC#N)ccc3F)cc21` [Example 134, 3-(4,4-Dimethyl-2-oxo-1,4-dihydro2H-benzo[d][1,3]-oxazin-6-yl)-4-fluoro-phenylacetonitrile], the melting point was 184 to 187 °C. Under `CCCc1cc(C#N)sc1-c1ccc2c(c1)C(C)(C)OC(=O)N2` [Example 112, 5-(4,4-Dimethyl-2-oxo-1,4-dihydro-2H-benzo[d][1,3]oxazin-6-yl)4-n-propyl-thiophene-2-carbonitrile] stands 160 to 162 °C; under `CC1(C)OC(=O)Nc2ccc(-c3cc(F)cc(F)c3)cc21` [Example 60, 6-(3,5-difluoro-phenyl)-4,4-dimethyl-1,4-dihydrobenzo-[d][1,3]oxazin-2-one], 218 to 219 °C; under `CC1(C)OC(=O)Nc2ccc(-c3ccccc3CC#N)cc21` [Example 136, 2-(4,4-Dimethyl 2-oxo-1,4-dihydro-2H-benzo[d][1,3]-oxazin-6-yl)phenylacetonitrile], 176 to 179 °C.

`CC1(C)OC(=O)Nc2ccc(-c3cc([N+](=O)[O-])cc([N+](=O)[O-])c3)cc21`: the melting point lay within 297 to 298 °C.

Regarding `CC#CC1(C2CC2)OC(=O)Nc2ccc(-c3cccc(Cl)c3)cc21` (stereo not shown) [Example 42, 6-(3-Chloro-phenyl)-4-cyclopropyl-4-propyn-1-yl-1,4-dihydro-benzo [d][1,3]oxazin-2-one], the melting point was in the range of 178 to 179 °C. Compound `COc1ccc(-c2ccc3c(c2)C(C)(C)OC(=O)N3)cc1F` [Example 138, 6-(3-Fluoro-4-methoxy-phenyl)4,4-dimethyl-1,4-dihydro-benzo[d][1,3]-oxazin-2-one] showed a melting point of 210 to 211 °C.

`COc1cc(F)cc(-c2ccc3c(c2)C(C)(C)OC(=O)N3)c1` [Example 82, 6-(3-Fluoro-5-methoxy-phenyl)-4,4-dimethyl-1,4-dihydro-benzo[d][1,3]oxazin-2-one] gave a melting point of 181 to 182 °C.

Take `N#Cc1cc(-c2ccc3c(c2)C(C2CC2)(C2CC2)OC(=O)N3)cs1` [Example 53, 4-(4,4-Dicyclopropyl-2-oxo-1,4-dihydro-2H-benzo[d][1,3]oxazin-6yl)-thiophene-2-carbonitrile]: the melting point is 244 to 245 °C.

For `CC1(C)OC(=O)Nc2ccc(-c3ccc(Cl)cc3)cc21` [Example 8, 6-(4-Chloro-phenyl)-4,4-dimethyl-1,4-dihydro-benzo[d][1,3]-oxazin-2-one], the melting point was 255 to 257 °C. In turn, `CC1(C)OC(=O)Nc2ccc(-c3cccc(F)c3F)cc21` [Example 130, 6-(2,3-Difluoro-phenyl)-4,4dimethyl-1,4-dihydro-benzo[d][1,3]oxazin-2-one] gave a melting point of 166 to 167 °C. In the case of `CC(=O)Nc1ccc(-c2ccc3c(c2)C(C)(C)OC(=O)N3)cc1F` [Example 137, N-[4-(4,4-Dimethyl-2-oxo-1,4-dihydro-2H-3,1-benzoxazin-6-yl)-2fluoro-phenyl]-acetamide] it was 245 to 247 °C; in that of `CC1(C)OC(=O)Nc2c(F)cc(-c3csc(C#N)c3)cc21` [Example 88, 4-(8-Fluoro-4,4-dimethyl-2-oxo-1,4-dihydro-2H-benzo[d][1,3]oxazin-6-yl)-thiophene-2-carbonitrile], 250 to 251 °C; in that of `CCN1C(=O)OC(C)(C)c2cc(-c3cc(F)cc(C#N)c3)ccc21` [Example 131, 3-(1-Ethyl-4,4-dimethyl-2-oxo-1,4-dihydro-2H-benzo[d][1,3]oxazin-6-yl)-5-fluoro-benzonitrile], 154 to 155 °C. Regarding `C#Cc1cccc(-c2ccc3c(c2)C(C)(C)OC(=O)N3)c1` [Example 74, 6-(3-Ethynyl-phenyl)-4,4-dimethyl-1,4dihydro-benzo[d][1,3]-oxazin-2-one], the melting point was 171 to 172 °C. `COc1cc(-c2cc(F)cc(C#N)c2)cc2c1NC(=O)OC2(C)C` [Example 128, 3-(4,4-Dimethyl-8-methoxy-2-oxo-1,4-dihydro-2H-3,1-benzoxazin-6-yl)-5-fluorobenzonitrile] showed a melting point of 252 to 253 °C. `COc1cccc(-c2ccc3c(c2)C2(CCC2)OC(=O)N3)c1` [Example 122, 6-(3-Methoxyphenyl)spiro[4H-3,1-benzoxazine-4,1-cyclobutan]-2(1H)-one] registered a melting point of 145 to 146 °C.

In turn, `CC1(C)OC(=O)Nc2ccc(-c3ccc(N)nc3)cc21` [Example 142, 6-(6-Amino-pyridin-3-yl)-4,4-dimethyl-1,4-dihydro-benzo[d][1,3]oxazine-2-one] yielded a melting point of 257 to 259 °C. As for `CC1(C2CC2)OC(=O)Nc2ccc(-c3cccc(Cl)c3)cc21` (stereo not shown) [Example 41, 6(3-Chloro-phenyl)-4-cyclopropyl-4-methyl-1,4-dihydro-benzo [d][1,3]oxazin-2-one], the melting point was in the range of 158 to 159 °C. Under `CC(C)(C)OC(=O)N1C(=O)OC(C)(C)c2cc(-c3cc(F)cc(C#N)c3)ccc21` [Example 86, 6-(3-Cyano-5fluoro-phenyl)-4,4-dimethyl-2oxo-4H-benzo[d][1,3]oxazine-1-carboxylic acid tert-butyl ester] stands 139 to 140 °C; under `CCOC(OCC)N1C(=O)OC(C)(C)c2cc(-c3cc(F)cc(C#N)c3)ccc21` [Example 66, 3(1-Diethoxymethyl-4,4-dimethyl-2-oxo-1,4-dihydro-2H-benzo[d][1,3]oxazin-6-yl)-5-fluoro-benzonitrile], 123 to 124 °C.

With `CCCCc1cc(C#N)sc1-c1ccc2c(c1)C(C)(C)OC(=O)N2` [Example 113, 5-(4,4-Dimethyl-2-oxo-1,4-dihydro-2H-benzo[d][1,3]oxazin-6-yl)4-n-butyl-thiophene-2-carbonitrile], the melting point was 167 to 168 °C. Regarding `CC1(C)OC(=O)Nc2ccc(-c3cccc(C#C[Si](C)(C)C)c3)cc21`, the melting point lay in the range of 240 to 242 °C.

Regarding `CC#CC1(C#CC)OC(=O)Nc2ccc(-c3cccc(Cl)c3)cc21` [Example 44, 6(3-Chloro-phenyl)-4,4dipropyn-1-yl-1,4dihydrobenzo[d][1,3]oxazin-2-one], the melting point is 151 °C (dec.). Turning to `CC1(C)OC(=O)Nc2ccc(-c3ccc(C#N)o3)cc21` [Example 119, 5-(4,4Dimethyl-2-oxo-1,4-dihydro-2H-benzo[d][1,3]oxazin-6-yl)-furan-2-carbonitrile], the melting point fell in the range of 257 to 260 °C. For `Cn1cccc1-c1ccc2c(c1)C(C)(C)OC(=O)N2` [Example 98, 4,4-Dimethyl-6-(1-methyl-1H-pyrrol-2-yl)-1,4-dihydro-benzo[d][1,3]oxazin-2-one], the melting point worked out at 230 °C. In the case of `CC1OC(=O)Nc2ccc(-c3cccc(Cl)c3)cc21` (stereo not shown) [Example 9, 6-(3-Chloro-phenyl)-4-methyl-1,4-dihydro-benzo[d][1,3]oxazin-2-one] it was 155 to 156 °C.
